The text below walks through data of PubChem BioAssay AID2305 (GlaxoSmithKline (GSK), 2010).

As usually defined, the IC50 is the concentration needed to halve the response being measured. A high value points to weaker potency in that assay.

In this test the test system is P. falciparum 3D7 growth, pLDH absorbance. The test can be described thus: blood-stage malaria parasite growth potency – strain 3D7, dose response (AID 2305).
In turn, `Oc1c(Cl)cc(Nc2nccc(Nc3ccc(Oc4ccccc4)cc3)n2)cc1Cl` registered an IC50 of 790 nM.

On to `CN(C)C(CNC(=O)c1cc(-c2ccncc2)c(-c2ccc(NC(=O)Nc3cccc(Cl)c3)cc2)o1)c1ccccc1` (stereo not given), for which the IC50 came out at 180 nM.

In the case of `CC(Cc1ccc(CSC(C)C)cc1)NCC(O)c1cccc(Cl)c1` (stereo not given), the IC50 was found to be 600 nM.

With `O=C(Nc1cc(Cl)cc(Cl)c1)N[C@H]1CCN(CCCCCNC(=O)[C@@H]2C[C@H]2c2ccc(Cl)c(Cl)c2)C1`, the IC50 came to 860 nM.

For `CCCNCc1ccc(-c2ccc(CN(CCOC)C(=O)Cc3cccnc3)cc2)nc1`, the IC50 was 820 nM.

Consider `CN1CCN(c2ccnc3ccc(NC(=O)Nc4cccc5ccccc45)cc23)CC1`, for which the IC50 was determined as 490 nM.

The compound `Cc1[nH]c(C)c(-c2ccc(/C=C/c3ccccn3)cc2)c(=O)c1Cl` returned an IC50 of 520 nM.

Compound `Cc1cc(NN=Cc2ccccn2)c2cc(F)ccc2n1` showed an IC50 of 760 nM.

In turn, `COc1ccccc1C1CCN(C2CCC(NC(=O)c3ccc4nc(-c5ccc(C)cc5)[nH]c4c3)CC2)CC1` (stereo not given) had an IC50 of 310 nM.

As for `CCc1ccc(CN2CCC(NC(=O)c3cc(-c4ccc(N(C)C)cc4)cs3)C2)cc1` (stereo not given), the IC50 was 1440 nM.

Turning to `CCN(CC)CCCC(C)Nc1c2ccccc2nc2ccc3ccccc3c12` (stereo not given), the IC50 came to 1040 nM.

Regarding `COc1ccc2c(c1CNCCCCCCNCc1c(OC)ccc3c1CCCC3)CCCC2`, the IC50 was found to be 910 nM.

`Cc1c(CC(=O)NCCC2CCN(CCCCCNC(=O)/C=C/c3ccc(Cl)c(Cl)c3)CC2)sc2ccc(Cl)cc12` returned an IC50 of 880 nM.

`CC(=O)Nc1cc(C(=O)Nc2cccc(-c3cccc(-c4nc5c(C)cccc5[nH]4)c3)c2)ccc1C` yielded an IC50 of 330 nM.

Compound `CCC(C)(C)c1ccc(N2C(N)=NC(N)=NC2(C)C)cc1` had an IC50 of 10 nM.

In the case of `CNC(=O)CC(=O)NCCc1ccc(Cl)cc1`, the half-inhibitory concentration (IC50) was 810 nM.

In turn, `CSC1=NC(=Nc2c(C)cccc2C)C2(CCC(C(C)(C)C)CC2)N1c1ccc(O)cc1` (stereo not given) came in with an IC50 of 250 nM.

In the case of `Oc1ccc(CN2CCC(NCc3cccc4ccccc34)CC2)cc1`, the IC50 stood at 1200 nM.

Turning to `O=C(Nc1ccc(Cl)cc1)c1cc(Cl)ccc1NC(=O)C1CCc2ccccc2O1` (stereo not given), the IC50 stood at 1790 nM.

With `O=C(C=Cc1ccc(Cl)c(Cl)c1)NCCCCCN1CCCC(CCCNC(=O)[C@@H]2C[C@H]2c2ccccc2)C1` (stereo not given in full), the IC50 was found to be 1130 nM.

The compound `O=c1ccc2ccc(F)cc2n1CCN1CCC(NCc2ccc(-c3ccccn3)s2)CC1` registered an IC50 of 890 nM.

Regarding `COc1cccc(C(=O)Nc2ccc(Nc3nc(C)cc(N4CCCCC4)n3)cc2)c1OC`, the IC50 was found to be 1020 nM.

For `COc1ccc2nccc([C@@H](O)CN3CCC(NC(=O)Cc4ccc(Br)c5ccccc45)CC3)c2c1`, the IC50 came to 820 nM.

Regarding `Nc1nccc2ccc(-c3ccc(Oc4ccccc4)cc3)cc12`, the IC50 was 280 nM.

As to `Cc1cc(-c2ccc3c(c2)CCN(CCC2CCC(NC(=O)/C=C/c4ccccc4F)CC2)CC3)on1` (stereo not given), the 50% inhibitory concentration (IC50) was determined as 810 nM.

Take `Fc1ccc2nc(-c3cccc(-c4ccc(CN5CCN(CCN6CCOCC6)CC5)cc4)c3)[nH]c2c1`: the IC50 was 310 nM.

`CCOC(=O)c1cncc(/C=C/c2cc(C)cnc2N)c1` yielded an IC50 of 420 nM.

Take `FC(F)(F)c1ccc2nc(-c3ccc(-c4ccc(CNCc5cnn(-c6ccccc6)n5)cc4)s3)[nH]c2c1`: the IC50 is 460 nM.

In the case of `Cc1cc(OCCCN2CCC(NS(=O)(=O)c3cc(Br)c(Cl)s3)CC2)c2ccccc2n1`, the IC50 is 850 nM.

In turn, `CC(N)(Cc1ccc(O)cc1)c1nn[nH]n1` (stereo not given) returned an IC50 of 970 nM.

The compound `COc1ccc(Nc2cc(C)nc(Nc3ccc(NC(C)=O)cc3)n2)cc1` showed an IC50 of 860 nM.

In the case of `O=[N+]([O-])c1cc(C(c2ccc(O)c([N+](=O)[O-])c2)C(Cl)(Cl)Cl)ccc1O`, the IC50 was determined as 730 nM.

`O=C(Nc1ccc(-c2nc3ccccc3[nH]2)cc1)c1ccc(S(=O)(=O)N2CCc3ccccc32)cc1` displayed an IC50 of 740 nM.

Consider `O=C(/C=C/c1ccc(Cl)c(Cl)c1)N1CCC(CN2CCC(c3c[nH]c4cc5c(cc34)OCO5)CC2)CC1`, for which the IC50 came out at 680 nM.

`CC(C)N1CCN(C(CN2CCN(CCCOc3cccc(F)c3)CC2)c2ccc(F)cc2)CC1` (stereo not given) gave a half-maximal inhibitory concentration (IC50) of 910 nM.
